Laboratory results from the supplement of paper PMC10307832.

Legend:
Test in all cases: relative viability (nuclei count vs DMSO), 5 days (fraction); higher = more cells survive
XAV939 = compound: Oc1nc(-c2ccc(C(F)(F)F)cc2)nc2c1CSCC2 [XAV939]
Procedure, shortened: (§1)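 In 1536-well plates, lung cancer cell lines rested overnight at 37 °C before five library-drug doses (not always all listed), √10 apart, were pinned onto vehicle-anchored plates. Nuclei were counted with MetaXpress from 4× Hoechst images taken after 5 days without medium change. Viability compares treated-well with vehicle-well nuclei as a median over plates, and plates needed control CV below 25% plus at least one doubling to pass.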

C-75 = compound: CCCCCCCC[C@H]1[C@@H](C(=C)C(=O)O1)C(=O)O [C-75]
Procedure, shortened: as §1

AZD7762 = compound: NC(=O)Nc1cc(-c2cccc(F)c2)sc1C(=O)N[C@H]1CCCNC1 [AZD7762]
Procedure, shortened: as §1

[1] = compound: O=C(O)c1ccc(-c2c[nH]c3ncc(-c4ccccc4)cc23)cc1C1CCCC1
Procedure, shortened: as §1

Navitoclax = compound: CC1(C)CCC(c2ccc(Cl)cc2)=C(CN2CCN(c3ccc(C(=O)NS(=O)(=O)c4ccc(N[C@H](CCN5CCOCC5)CSc5ccccc5)c(S(=O)(=O)C(F)(F)F)c4)cc3)CC2)C1 [Navitoclax]
Procedure, shortened: as §1

| Cell Line | relative viability (XAV939; 0.08 µM) | relative viability (XAV939; 0.253 µM) | relative viability (XAV939; 0.8 µM) | relative viability (XAV939; 2.53 µM) | relative viability (C-75; 0.08 µM) | relative viability (C-75; 0.253 µM) | relative viability (C-75; 0.8 µM) | relative viability (C-75; 2.53 µM) | relative viability (C-75; 8 µM) | relative viability (AZD7762; 0.01 µM) | relative viability (AZD7762; 0.03162 µM) | relative viability (AZD7762; 0.1 µM) | relative viability (AZD7762; 0.2 µM, anchor plate) | relative viability (AZD7762; 0.3162 µM) | relative viability (AZD7762; 1 µM) | relative viability ([1]; 0.04 µM) | relative viability ([1]; 0.1265 µM) | relative viability ([1]; 0.4 µM) | relative viability ([1]; 1.265 µM) | relative viability (Navitoclax; 0.005 µM) | relative viability (Navitoclax; 0.01581 µM) | relative viability (Navitoclax; 0.05 µM) | relative viability (Navitoclax; 0.1581 µM) | relative viability (Navitoclax; 0.5 µM) | relative viability (Navitoclax; 0.5 µM, anchor plate) |
| --- | --- | --- | --- | --- | --- | --- | --- | --- | --- | --- | --- | --- | --- | --- | --- | --- | --- | --- | --- | --- | --- | --- | --- | --- | --- |
| NCI-H1755 | 0.961 | 0.834 | 0.931 | 0.876 | 0.954 | 0.972 | 0.946 | 0.845 | 0.982 | 1.01 | 1.02 | 1.09 | 0.458 | 0.936 | 0.471 | 1.01 | 1.09 | 1.04 | 0.956 | 1.01 | 1.02 | 0.897 | 0.957 | 0.966 | 0.988 |
| NCI-H650 | 1.03 | 1.08 | 0.99 | 0.824 | 0.916 | 0.875 | 0.862 | 0.87 | 0.817 | 1.08 | 1.05 | 0.905 | 1.03 | 0.954 | 0.914 | 0.908 | 1.03 | 0.77 | 0.67 | 0.908 | 0.97 | 0.956 | 0.853 | 1.04 | – |
| CAL-12T | 1 | 0.884 | 0.877 | 0.814 | 1.06 | 1.15 | 0.859 | 0.922 | 1.08 | 0.993 | 0.982 | 1.06 | 0.646 | 0.724 | 0.241 | 1.08 | 1.17 | 0.914 | 0.734 | 0.935 | 1.05 | 1.01 | 0.985 | 1.01 | 1.14 |
| EBC-1 | 1.05 | 0.901 | 0.882 | 0.817 | 1.04 | 1.08 | 0.956 | 0.84 | 0.757 | 1.1 | 0.98 | 0.993 | – | 0.939 | 0.576 | 1.02 | 1.14 | 0.923 | 0.633 | 0.931 | 1.17 | 0.958 | 1.1 | 0.718 | 0.451 |
| NCI-H838 | 0.965 | 0.892 | 0.805 | 0.624 | 0.989 | 0.82 | 0.941 | 0.867 | 0.895 | 1.04 | 0.982 | 1.01 | 0.944 | 0.942 | 0.599 | 0.972 | 1.16 | 0.994 | 0.926 | 0.964 | 1.02 | 1.08 | 1 | 0.97 | 1.21 |
| NCI-H2405 | 1.03 | 0.978 | 0.966 | 0.993 | 1.01 | 0.737 | 0.948 | 0.872 | 1.07 | 1.02 | 1.11 | 1.02 | 0.763 | 0.953 | 0.585 | 0.998 | 1.13 | 0.977 | 0.741 | 0.984 | 1.11 | 0.996 | 1.03 | 0.93 | 0.845 |
| LU99A | 0.78 | 0.827 | 0.939 | 1.02 | 1 | 0.928 | 0.97 | 0.834 | 0.858 | 0.943 | 1.1 | 0.995 | 0.356 | 0.986 | 0.414 | 0.958 | 0.941 | 0.894 | 0.65 | 0.916 | 1.13 | 0.933 | 1.03 | 1.04 | 0.839 |
| NCI-H2126 | 1.01 | 0.826 | 0.822 | 0.807 | 0.949 | 1.14 | 0.957 | 0.919 | 0.943 | 0.972 | 1.07 | 1.05 | 1.01 | 1.02 | 1.09 | 1.1 | 1 | 0.992 | 0.923 | 1.04 | 1.07 | 0.901 | 0.927 | 0.976 | 0.852 |
| ChaGo-K-1 | 0.978 | 0.894 | 1.03 | 0.973 | 0.93 | 0.98 | 0.931 | 0.799 | 0.966 | 1.01 | 0.969 | 1.06 | 0.873 | 0.905 | 0.841 | 1.05 | 1.01 | 0.896 | 1.02 | 1.03 | 1.01 | 0.727 | 0.961 | 1.04 | 1.09 |
| NCI-H1648 | 0.794 | 0.764 | 0.887 | 0.737 | 0.758 | 1.27 | 0.737 | – | 0.899 | 1.29 | 1.08 | 0.87 | 0.676 | 0.932 | 0.99 | 1 | 1.15 | 0.75 | 0.768 | 0.914 | 1.07 | – | 0.78 | 1.09 | – |
| 201T | 0.96 | 0.808 | 0.762 | 0.846 | 1.02 | 1.16 | 0.987 | 0.917 | 0.993 | 0.937 | 1.01 | 1.02 | 0.596 | 0.92 | 0.878 | 0.997 | 1.05 | 0.948 | 1 | 1.06 | 1.14 | 0.974 | 0.957 | 1.04 | 1.19 |
| UMC-11 | 0.996 | 0.777 | 0.955 | 0.868 | 0.949 | 1.1 | 0.875 | 0.721 | 0.726 | 0.997 | 0.961 | 0.979 | – | 0.822 | 0.537 | 0.978 | 1.08 | 0.934 | 0.905 | 0.944 | 0.966 | 0.742 | 0.903 | 0.621 | 0.324 |
| A-427 | 1.12 | 0.936 | 0.933 | 0.897 | 1.05 | 0.938 | 0.948 | 0.847 | 0.82 | 0.988 | 1.02 | 1.03 | 0.784 | 0.852 | 0.419 | 1.03 | 1.11 | 0.998 | 0.888 | 1.02 | 0.977 | 0.959 | 1 | 1.03 | 0.968 |
| H3255 | 1.06 | 0.892 | 0.814 | 0.895 | 0.963 | 0.973 | 0.945 | 0.901 | 0.995 | 1.05 | 1.04 | 1.04 | 0.971 | 0.958 | 0.856 | 0.954 | 1.04 | 0.97 | 0.944 | 0.979 | 1.17 | 0.87 | 0.92 | 0.786 | 0.529 |
